Laboratory results from patent US20060111289A1, “Compositions and methods of using Alpha-fetoprotein growth inhibitory peptides” (Serometrix, LLC,, priority 2004, published 2006).
Where a SMILES comes first, the peptide text is derived from it.

Tests used:
[1] = tested on: MCF-7 cells; assay: MCF-7 cell proliferation assay (8 days, sulforhodamine B); format: cell-based, human
Procedure: MCF-7 cells were seeded at 25,000 cells/well in 48 well microtiter plates, and incubated for eight days in the various test and control reagents. […] Tumor cells were fixed after 8 days and analyzed for proliferation using the standard sulfarhodamine B staining procedure.

[2] = tested on: three human cancer cell lines (breast, prostate, or kidney); assay: Sulforhodamine cytostatic 6-day assay, cyclic versus linear peptide; format: cell-based; details: linear versus cyclic configuration
Procedure: FIG. 3 presents exemplary data showing the growth suppressive activities of the oligomeric forms of P149, cyclic versus linear, are depicted in various in vitro and in vivo models. Biological activity was determined by three growth-dependent bioassays, namely; • Panel-A and A1) an immature rodent uterine bioassay; • Panel-B and B 1) an in vitro MCF-7 foci assay; • Panel-C and C1) an in vitro tumor cell cytostatic assessment. […] See text for details. Scrambled peptide=P327.
GIP is a major participant in tumor cell surface interactions. GIP is a potent suppressor of tumor proliferation in both rodent and human cell models. GIP's biological activity is dependent on its oligomeric state, specifically its trimer (linear) versus monomer (cyclic) configuration. Biological activity was determined by three growth-dependent bioassays, namely, i) an immature rodent uterine assay; ii) an in vitro MCF-7 foci assay; and iii) an in vitro cytostatic assessment. […]
The cyclic form of GIP constitutes a disulfide-bridged monomer in solution, whereas GIP in the linear configuration is known to exist as an oligomeric trimer. […] Using three different human cancer cell lines (breast, prostate, or kidney) it was readily demonstrable that the monomeric cyclic form of the peptide produced 80-90% growth inhibition over a range of 10^−5 M to 10^−7 M when the sulforhodamine cytostatic 6-day assay was employed. […]

[3] = tested on: human kidney tumor cell line
[4] = tested on: 6WI-1 mammary tumor cells; assay: 6WI-1 mammary tumor in 15-day old mouse pups (6 day assay); format: in vivo; design: % Inhibition Of Activity: 6WI-1 Pup Ascites: concentration or dose not given beside the values; details: mouse pups
Excerpt: As an alternative model of the 6WI-I mammary tumor in adult mice, an inocula of 1×10^6 tumor cells injected into 15-day old mouse pups provided a 6 day rather than a 12 day assay and replicated the same tumor growth suppression by GIP.

[5] = tested on: MCF-7 and 6WI-1 tumor cells; assay: Tumor cell adhesion to ECM proteins in microtiter plates; format: cell-based, human, murine
Procedure: FIG. 8 presents exemplary data showing the inhibition of P149 in the cellular adhesion of cancer cells to extracellular matrix (ECM) proteins for both human MCF-7 breast cancer cells and for murine 6WI-1 ascites-adapted mammary tumor cells. The cellular adhesion assay was performed in 96-well microtiter plates (Nunc Company, Denmark, catalog #263339) and the wells were pre-coated with 100 microliters of each of the above-mentioned ECM proteins for 24 hours as previously determined. After adding tumor cells, the plates were then incubated at 37° C. for various times; while 6WI-1 cells usually required only 2-4 hours incubation for adhesion; MCF-7 cells required 24 hours for attachment following trypsinization. For both cell lines, the cell culture media contained 5% calf serum to ensure cell attachment. The plates were washed twice with Hank's Saline, fixed in 0.5 mL of 37% formaldehyde, stained with crystal violet and read at […] on a microplate reader. Inset: Using a CyQUANT® stain kit, (Hoechst Corp., Germany) the plates were first exposed to a freeze/thaw cycle at −70° C. for 24 hours and 37° C. for 10 minutes. CyQUANT® buffer solution (150 microliters) was added to each well, and the cell adhesion was measured by fluorescence spectroscopy and quantitated using an ImageQuant® plate scanner (Fluorimager 595, Molecular Dynamics, Sunnyvale, Calif.).
This attachment of GIP was a slightly weaker adhesion matrix than was gelatin, chondroitin sulfate, and poly-lysine which approximated 30-35%. Using P149, the optimal amount of peptide required to inhibit tumor cell adhesion was determined by absorbing soluble peptide (1.0 pg to 100 μg) to the walls of microtiter plates. A constant number of MCF-7 tumor cells (i.e., for example, 1×10^5) were then added to the microtiter well and adhesion quantitated by fluorescence. […] The quantitation of MCF-7 and 6WI-1 cell adhesion in the presence of peptide versus peptide-free media was then determined on ECM-coated microtiter plates using 3 μg GIP/well as a competitive inhibitor. The P149 peptide was added to the wells immediately after the cells were dispensed and then the mixture was incubated as described. The AFP peptide was capable of cell adhesion inhibition in most of the ECM proteins in both tumor cell lines. Inhibition of mouse and human tumor cell adhesion was somewhat equivalent using collagen IV, fibrinogen, fibronectin, and thrombospondin. […] Thus, the GIP was found capable of eliciting different attachment inhibitions dependent on the type of ECM protein coating the wall of the microtiter plate and also the tumor cell type involved.

Compound: CC[C@H](C)[C@H](NC(=O)[C@@H]1CSSC[C@H](NC(=O)[C@H](C)NC(=O)[C@H](CC(C)C)NC(=O)[C@H](CC(C)C)NC(=O)[C@H](CCCCN)NC(=O)[C@H](CC(=O)O)NC(=O)[C@H](CCC(=O)O)NC(=O)[C@H](CO)NC(=O)[C@@H](N)CC(C)C)C(=O)NCC(=O)N[C@@H](CCC(=O)O)C(=O)NCC(=O)N[C@@H](C)C(=O)N[C@@H](C)C(=O)N[C@@H](CC(=O)O)C(=O)N[C@@H]([C@@H](C)CC)C(=O)N[C@@H]([C@@H](C)CC)C(=O)N[C@@H]([C@@H](C)CC)C(=O)NCC(=O)N[C@@H](Cc2c[nH]cn2)C(=O)N[C@@H](CC(C)C)C(=O)N1)C(=O)N[C@@H](CCCNC(=N)N)C(=O)N[C@@H](Cc1c[nH]cn1)C(=O)N[C@@H](CCC(=O)O)C(=O)N[C@@H](CCSC)C(=O)N[C@H](C(=O)N1CCC[C@H]1C(=O)N[C@H](C(=O)N[C@@H](CC(N)=O)C(=O)N1CCC[C@H]1C(=O)NCC(=O)N[C@H](C(=O)O)C(C)C)C(C)C)[C@@H](C)O [Cyclic GIP] (HELM PEPTIDE1{L.S.E.D.K.L.L.A.C.G.E.G.A.A.D.I.I.I.G.H.L.C.I.R.H.E.M.T.P.V.N.P.G.V}$PEPTIDE1,PEPTIDE1,9:R3-22:R3$$$V2.0; N-terminus and C-terminus assumed)
- Growth suppression of MCF-7 cells ([1]; 8 days, 10^−8 to 10^−12 M): 80 to 90%
- Most effective concentration for growth suppression ([1]; culture day-8, tested 10^−5 to 10^−14 M): 10^−8 M
- Inhibition in the in vitro cytostatic assay [2]: 80-90%

Compound: KDFIHKQGVALQTMKQELINLVKELVKPQIEAVADFSGLL (listed as Homo sapiens) [P192, reference compound]
- % Inhibition Of Activity: Kidney tumor growth [3]: 0%
- % Inhibition Of Activity: 6WI-1 Pup Ascites [4]: 0%
- % Inhibition Of Activity: Cell Adhesion [5]: 0%
